# Experimental data from patent US10336762B2 (priority 2017, dated 2019).
# Experiments:
# IRAK4 enzyme = IRAK4 enzyme (Homo sapiens (Human), UniProt Q9NWZ3); test: biochemical; assay type: biochemical; details: IRAK4 enzyme, TR-FRET, 500 μM ATP
# TNFα = test: cells; assay type: cell-based, human; details: Homo sapiens, Monocyte, LPS-stimulated human monocytes, TNFα by TR-FRET; read-out: EC50 TNF
# Chain of IRAK4 enzyme (Q9NWZ3 whole entry): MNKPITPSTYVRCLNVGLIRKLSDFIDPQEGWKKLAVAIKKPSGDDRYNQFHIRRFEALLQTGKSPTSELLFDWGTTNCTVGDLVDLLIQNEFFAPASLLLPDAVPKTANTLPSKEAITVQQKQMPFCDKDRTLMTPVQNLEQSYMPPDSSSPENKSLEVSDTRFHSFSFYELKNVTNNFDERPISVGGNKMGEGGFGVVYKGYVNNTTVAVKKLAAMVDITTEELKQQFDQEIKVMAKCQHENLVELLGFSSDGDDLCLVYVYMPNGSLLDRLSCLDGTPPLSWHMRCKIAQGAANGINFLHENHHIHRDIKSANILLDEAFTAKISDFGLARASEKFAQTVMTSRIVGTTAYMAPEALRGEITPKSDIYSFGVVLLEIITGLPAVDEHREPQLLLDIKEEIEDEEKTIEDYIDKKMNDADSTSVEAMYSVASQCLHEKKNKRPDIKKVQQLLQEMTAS
SMILES,IC50 (IRAK4 enzyme) [nM],EC50 (TNFα) [nM]
"CN1CCOc2cc(Nc3cc(-c4ccc5cc(C#N)cnn45)ncc3C(=O)N[C@H]3CC[C@H](NC(=O)C4CC4)CC3)ccc21 [Example 859, 6-(3-cyanopyrrolo[1,2-b]pyridazin-7-yl)-N-((1r,4r)-4-(cyclopropanecarboxamido)cyclohexyl)-4-((4-methyl-3,4-dihydro-2H-benzo[b][1,4]oxazin-7-yl)amino)nicotinamide]",3,89
"CN1CCOc2cc(Nc3cc(-c4ccc5cc(C#N)cnn45)ncc3C(=O)N[C@H]3CC[C@H](NC(=O)N4CCOCC4)CC3)ccc21 [Example 860, N-((1r,4r)-4-(6-(3-cyano-pyrrolo[1,2-b]pyridazin-7-yl)-4-((4-methyl-3,4-dihydro-2H-benzo[b][1,4]oxazin-7-yl)amino)nicotin-amido)cyclohexyl) morpholine-4-carboxamide]",2,31
"N#Cc1cnn2c(-c3cc(Nc4cnc5c(c4)OCCO5)c(C(=O)N[C@H]4CC[C@H](NC(=O)N5CCOCC5)CC4)cn3)ccc2c1 [Example 861, N-((1r,4r)-4-(6-(3-cyano-pyrrolo[1,2-b]pyridazin-7-yl)-4-((2,3-dihydro-[1,4]dioxino[2,3-b]pyridin-7-yl)amino)nicotinamido)cyclohexyl)morpholine-4-carboxamide]",< 1,16
"CC(C)(O)[C@H](F)CNC(=O)c1cnc(-c2ccc3cc(C#N)cnn23)cc1Nc1cnc2c(c1)COCC2 [Example 862, (R)-6-(3-cyanopyrrolo[1,2-b]pyridazin-7-yl)-4-((7,8-dihydro-5H-pyrano[4,3-b]pyridin-3-yl)amino)-N-(2-fluoro-3-hydroxy-3-methylbutyl)nicotinamide]",< 1,46
"CC(C)(O)[C@H](F)CNC(=O)c1cnc(-c2ccc3cc(C#N)cnn23)cc1Nc1ccc2c(c1)CNC2 [Example 863, (R)-6-(3-cyanopyrrolo[1,2-b]pyridazin-7-yl)-N-(2-fluoro-3-hydroxy-3-methylbutyl)-4-(isoindolin-5-ylamino)nicotinamide]",< 1,74
"CC(C)(O)[C@H](F)CNC(=O)c1cnc(-c2ccc3cc(C#N)cnn23)cc1Nc1ccc2c(c1)CN(C1COC1)C2 [Example 864, (R)-6-(3-cyanopyrrolo[1,2-b]pyridazin-7-yl)-N-(2-fluoro-3-hydroxy-3-methylbutyl)-4-((2-(oxetan-3-yl)isoindolin-5-yl)amino) nicotinamide]",< 1,69
"COC(=O)NC1(c2ccc(Nc3cc(-c4ccc5cc(C#N)cnn45)ncc3C(=O)N[C@H]3CC[C@H](NC(=O)C4CC4)CC3)cc2)CC1 [Example 866, methyl (1-(4-((2-(3-cyano-pyrrolo[1,2-b]pyridazin-7-yl)-5-(((1r,4r)-4-(cyclopropanecarboxamido)cyclohexyl)carbamoyl)pyridin-4-yl)amino)phenyl)cyclopropyl)carbamate]",1,37
"[2H]C([2H])([2H])OC(=O)NC[C@H]1C[C@H](Nc2cc(-c3ccc4cc(C#N)cnn34)ncc2C(=O)NC[C@@H](F)C(C)(C)O)C1 [Example 867, methyl-d3 (((1R,3r)-3-((2-(3-cyanopyrrolo[1,2-b]pyridazin-7-yl)-5-(((R)-2-fluoro-3-hydroxy-3-methylbutyl)carbamoyl)pyridin-4-yl)amino)cyclo-butyl)methyl)carbamate]",< 1,6
"COC(=O)N1CCN(c2ccc(Nc3cc(-c4ccc5cc(C#N)cnn45)ncc3C(=O)NC[C@@H](F)C(C)(C)O)cn2)CC1 [Example 870, (R)-methyl 4-(5-((2-(3-cyanopyrrolo[1,2-b]pyridazin-7-yl)-5-((2-fluoro-3-hydroxy-3-methylbutyl)carbamoyl)pyridin-4-yl)amino)pyridin-2-yl)piperazine-1-carboxylate]",1,81
"CC(C)(O)[C@H](F)CNC(=O)c1cnc(-c2ccc3cc(C#N)cnn23)cc1Nc1ccc(N2CCN(C3COC3)CC2)nc1 [Example 871, (R)-6-(3-cyanopyrrolo[1,2-b]pyridazin-7-yl)-N-(2-fluoro-3-hydroxy-3-methylbutyl)-4-((6-(4-(oxetan-3-yl)piperazin-1-yl)pyridin-3-yl)amino)nicotinamide]",1,51
"CC(C)(O)[C@H](F)CNC(=O)c1cnc(-c2ccc3cc(C#N)cnn23)cc1Nc1ccc(CNCC(F)F)cc1 [Example 872, (R)-6-(3-cyanopyrrolo[1,2-b]pyridazin-7-yl)-4-((4-(((2,2-difluoroethyl)amino)methyl)phenyl)amino)-N-(2-fluoro-3-hydroxy-3-methylbutyl)nicotinamide]",< 1,14
"CC1(C(=O)NC[C@H]2C[C@H](Nc3cc(-c4ccc5cc(C#N)cnn45)ncc3C(=O)NC[C@@H](F)C(C)(C)O)C2)COC1 [Example 873, 6-(3-cyanopyrrolo[1,2-b]pyridazin-7-yl)-N-((R)-2-fluoro-3-hydroxy-3-methylbutyl)-4-(((1r,3R)-3-((3-methyloxetane-3-carboxamido)methyl)cyclobutyl)amino) nicotinamide]",< 1,102
"CC(C)(O)[C@H](F)CNC(=O)c1cnc(-c2ccc3cc(C#N)cnn23)cc1Nc1ccc(C(C)(C)N2CCOC2=O)cc1 [Example 874, (R)-6-(3-cyanopyrrolo[1,2-b]pyridazin-7-yl)-N-(2-fluoro-3-hydroxy-3-methylbutyl)-4-((4-(2-(2-oxooxazolidin-3-yl)propan-2-yl)phenyl)amino)nicotinamide]",< 1,13
"CC(C)(O)[C@H](F)CNC(=O)c1cnc(-c2ccc3cc(C#N)cnn23)cc1Nc1ccc(C(C)(C)N2CCCC2=O)cc1 [Example 875, (R)-6-(3-cyanopyrrolo[1,2-b]pyridazin-7-yl)-N-(2-fluoro-3-hydroxy-3-methyl-butyl)-4-((4-(2-(2-oxo-pyrrolidin-1-yl)propan-2-yl)phenyl)amino)nicotinamide]",2,64
"CC(C)(O)[C@H](F)CNC(=O)c1cnc(-c2ccc3cc(C#N)cnn23)cc1Nc1ccc(C2(N3CCOC3=O)CC2)cc1 [Example 876, (R)-6-(3-cyanopyrrolo[1,2-b]pyridazin-7-yl)-N-(2-fluoro-3-hydroxy-3-methylbutyl)-4-((4-(1-(2-oxooxazolidin-3-yl)cyclo-propyl)phenyl)amino) nicotinamide]",< 1,24
"CC(C)(O)[C@H](F)CNC(=O)c1cnc(-c2ccc3cc(C#N)cnn23)cc1Nc1ccc(N2CCCC2)nc1 [Example 877, (R)-6-(3-cyano-pyrrolo[1,2-b]pyridazin-7-yl)-N-(2-fluoro-3-hydroxy-3-methylbutyl)-4-((6-(pyrrolidin-1-yl)pyridin-3-yl)amino) nicotinamide]",2,46
"CC(=O)NC[C@@H]1CCCN1c1ccc(Nc2cc(-c3ccc4cc(C#N)cnn34)ncc2C(=O)NC[C@@H](F)C(C)(C)O)cn1 [Example 878, 4-((6-((S)-2-(acetamidomethyl)pyrrolidin-1-yl)pyridin-3-yl)amino)-6-(3-cyanopyrrolo[1,2-b]pyridazin-7-yl)-N-((R)-2-fluoro-3-hydroxy-3-methylbutyl)nicotinamide]",2,141
"COC(=O)NC[C@@H]1CCCN1c1ccc(Nc2cc(-c3ccc4cc(C#N)cnn34)ncc2C(=O)NC[C@@H](F)C(C)(C)O)cn1 [Example 879, methyl (((S)-1-(5-((2-(3-cyanopyrrolo[1,2-b]pyridazin-7-yl)-5-(((R)-2-fluoro-3-hydroxy-3-methylbutyl)carbamoyl)pyridin-4-yl)amino)pyridin-2-yl)pyrrolidin-2-yl)methyl)carbamate]",1,225
"CC(=O)NC1CCN(c2ccc(Nc3cc(-c4ccc5cc(C#N)cnn45)ncc3C(=O)NC[C@@H](F)C(C)(C)O)cn2)CC1 [Example 880, (R)-4-((6-(4-acetamido-piperidin-1-yl)pyridin-3-yl)amino)-6-(3-cyano-pyrrolo[1,2-b]pyridazin-7-yl)-N-(2-fluoro-3-hydroxy-3-methylbutyl) nicotinamide]",< 1,58
"COC(=O)NC1CCN(c2ccc(Nc3cc(-c4ccc5cc(C#N)cnn45)ncc3C(=O)NC[C@@H](F)C(C)(C)O)cn2)CC1 [Example 881, (R)-methyl (1-(5-((2-(3-cyanopyrrolo[1,2-b]pyridazin-7-yl)-5-((2-fluoro-3-hydroxy-3-methylbutyl)carbamoyl)pyridin-4-yl)amino)pyridin-2-yl)piperidin-4-yl)carbamate]",< 1,84
"CC(C)(O)[C@H](F)CNC(=O)c1cnc(-c2ccc3cc(C#N)cnn23)cc1Nc1cnn([C@@H]2CNC[C@H]2F)c1 [Example 882, 6-(3-cyanopyrrolo[1,2-b]pyridazin-7-yl)-N-((R)-2-fluoro-3-hydroxy-3-methylbutyl)-4-((1-((3R,4R)-4-fluoro-pyrrolidin-3-yl)-1H-pyrazol-4-yl)amino) nicotinamide]",< 1,22
"CC(C)(O)[C@H](F)CNC(=O)c1cnc(-c2ccc3cc(C#N)cnn23)cc1Nc1cnn([C@@H]2CNC[C@@H]2F)c1 [Example 883, 6-(3-cyanopyrrolo[1,2-b]pyridazin-7-yl)-N-((R)-2-fluoro-3-hydroxy-3-methylbutyl)-4-((1-((3R,4S)-4-fluoro-pyrrolidin-3-yl)-1H-pyrazol-4-yl)amino) nicotinamide]",< 1,90
"COC[C@@H]1CCCN1c1ccc(Nc2cc(-c3ccc4cc(C#N)cnn34)ncc2C(=O)NC[C@@H](F)C(C)(C)O)cn1 [Example 884, 6-(3-cyanopyrrolo[1,2-b]pyridazin-7-yl)-N-((R)-2-fluoro-3-hydroxy-3-methylbutyl)-4-((6-((S)-2-(methoxymethyl)pyrrolidin-1-yl)pyridin-3-yl)amino)nicotinamide]",2,29
